We go through three compounds from patent US11278541B2, “Low dose combination therapy for treatment of myeloproliferative neoplasms” (Incyte Corporation, priority 2017, dated 2022).

Broadly, the inhibition is the relative decrease from the control value, in per cent. The low end stands for a response near the control, the high end for a response far below the control. By IC50 is commonly meant the concentration that inhibits the measured activity by half. For orientation: fraction unbound means free concentration divided by total concentration.

Data set [1] has as its system pBAD in KMS12BM cell line. As to the kind of experiment: pBAD inhibition by patient plasma samples incubated ex vivo with KMS12BM cell line. The data set is classed as in vivo, human. The note with it: KMS-12-BM, 192 h; 80 mg BID, cycle 1, day 8, time course. The procedure: Plasma samples from patients were incubated ex vivo with the KMS12BM cell line for 2.5 hours at 37° C. Whole cell lysates were prepared from the cells, and levels of pBAD were determined using an ELISA.

Data set [2] in a line: Conversion of Example 3 cell activity to protein-binding adjusted activity and human dose.
A further data set deals with T1, Pim1 (Homo sapiens, UniProt P11309).
T1 construct: purchased Invitrogen PV3503
As to the kind of experiment: Pim-1 kinase assay (Assay B). It is filed as biochemical. The note with it: 1 mM ATP. The procedure: Pim-1 and Pim-3 kinase assays—20 μL reactions were run in white 384 well polystyrene plates dotted with 0.8 μL compound/DMSO in the assay buffer (50 mM Tris, pH 7.5, 0.01% Tween-20, 5 mM MgCl2, 0.01% BSA, 5 mM DTT), containing 0.05 μM Biotin-labeled BAD peptide substrate (AnaSpec 62269), 1 mM ATP, and 2.5 pM (Pim-1, Invitrogen PV3503) or 1.25 pM (Pim-3, Millipore 14-738) enzyme for 1 h at 25° C. Reactions were stopped by addition of 10 μL STOP Buffer (150 mM Tris, pH=7.5, 150 mM NaCl, 75 mM EDTA, 0.01% Tween-20, 0.3% BSA) supplemented with Phospho-Bad (Ser112) Antibody (Cell Signaling 9291) diluted 666-fold, and Streptavidin donor beads (PerkinElmer 6760002) along with Protein-A acceptor beads (PerkinElmer 6760137) at 15 μg/mL each. Supplementation of the STOP buffer with beads and stopping the reactions were done under reduced light. Prior to the stopping reactions STOP buffer with beads was pre-incubated for 1 h in the dark at room temperature. After stopping the reactions, plates were incubated for 1 h in the dark at room temperature before reading on a PHERAstar FS plate reader (BMG Labtech) under reduced light.

The target in the next data set is Pim3 (Homo sapiens, UniProt Q86V86). As to the kind of experiment: Pim-3 kinase assay (Assay B). The data set is classed as biochemical. The note with it: 1 mM ATP.
Data set [3] has as its system Peripheral blood mononuclear cells from an MPN patient (PV, JAK2-V617F+). The data set is described as follows: Epo-independent erythroid colony formation. The data set is classed as cell-based, human. The note with it: Compound 1 alone, colonies scored after 12 days. From the text:
Epo-independent erythroid colonies were scored after 12 days. […] The lower measured % growth indicates synergy.

The next data set has as its target T2, Pim2 (Homo sapiens, UniProt Q9P1W9).
T2 construct: purchased Invitrogen PV3649
The data set is described as follows: Pim-2 kinase assay (Assay B). The data set is classed as biochemical. The note with it: 1 mM ATP. The procedure: Pim-2 kinase assay—20 μL reactions were run in white 384 well polystyrene plates dotted with 0.8 μL compound/DMSO in the assay buffer (50 mM Tris, pH 7.5, 0.01% Tween-20, 5 mM MgCl2, 0.01% BSA, 5 mM DTT), containing 0.05 μM Fluorescein-labeled CREBtide peptide substrate (Invitrogen PV3508), 1 mM ATP, and 1 nM enzyme (Invitrogen PV3649) for 2 h at 25° C. Reactions were stopped by addition of 10 μL TR-FRET Dilution Buffer (Invitrogen PV3574) with 30 mM EDTA and 1.5 nM LanthaScreen Tb-CREB pSer133 antibody (Invitrogen PV3566). After 30 min. incubation at room temperature, plates were read on a PHERAstar FS plate reader (BMG Labtech).

The nature of data set [4]: Protein binding in human serum (equilibrium dialysis). It is filed as in vitro ADME. The note with it: 0.3 μM-10 μM. The method, then:
For human, the average in vitro serum fraction unbound (fu) of 7.0%. For the protein binding determination, the Multi-Equilibrium Dialyzer System™ and diachema membranes from Harvard Apparatus (Holliston, Mass.) were utilized. Samples were protein precipitated, matrix matched and then centrifuged. The supernatant was transferred and analyzed using LC-MS/MS. The percent fraction unbound for in vitro samples was calculated using final peak area ratios in post-dialysis buffer divided by final peak area ratios in post-dialysis serum, with correction applied for volume shift.
On the technique in general: Equilibrium dialysis compares concentrations on both sides of a semipermeable membrane.

The nature of data set [5]: Free fraction in media of the Example 3 assay. It is filed as in vitro ADME. The note with it: cell assay media (Example 3 assay); media of Example 3 assay. From the text:
The assay in Example 3 involved plating cells from blood in media. […] The serum free fraction and media free fractions of 7% and 58% can be used to convert the results in Example 3 to an human dose assuming a linear dose-response curve.

Each structure is given as a SMILES string. Counter-ions that a name gives are not always drawn.

T1 sequence (P11309 whole entry): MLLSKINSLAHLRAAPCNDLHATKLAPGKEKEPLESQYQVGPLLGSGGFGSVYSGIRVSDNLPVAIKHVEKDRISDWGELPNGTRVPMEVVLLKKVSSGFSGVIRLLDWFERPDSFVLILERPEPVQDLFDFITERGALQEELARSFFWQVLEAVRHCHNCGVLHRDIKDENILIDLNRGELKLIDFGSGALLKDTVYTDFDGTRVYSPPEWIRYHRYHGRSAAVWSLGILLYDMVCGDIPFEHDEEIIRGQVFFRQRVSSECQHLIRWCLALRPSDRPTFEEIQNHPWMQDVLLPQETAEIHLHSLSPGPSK
T2 sequence (Q9P1W9 whole entry): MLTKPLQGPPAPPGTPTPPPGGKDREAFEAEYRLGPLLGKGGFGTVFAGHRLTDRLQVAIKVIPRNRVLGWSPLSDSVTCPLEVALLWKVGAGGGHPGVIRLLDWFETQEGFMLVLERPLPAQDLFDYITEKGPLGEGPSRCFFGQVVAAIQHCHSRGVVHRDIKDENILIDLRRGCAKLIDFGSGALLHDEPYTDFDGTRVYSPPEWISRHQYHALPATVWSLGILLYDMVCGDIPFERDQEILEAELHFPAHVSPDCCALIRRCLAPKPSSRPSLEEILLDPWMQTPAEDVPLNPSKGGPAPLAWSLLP

In the case of `C[C@H]1CN(c2c(NC(=O)c3ccc(F)c(-c4c(F)cccc4F)n3)cnc3c2CC[C@H]3O)C[C@@H](N)[C@@H]1O` [Compound 1, N-{(7R)-4-[(3R,4R,5S)-3-Amino-4-hydroxy-5-methylpiperidin-1-yl]-7-hydroxy-6,7-dihydro-5H-cyclopenta[b]pyridin-3-yl}-6-(2,6-difluorophenyl)-5-fluoropyridine-2-carboxamide], the inhibition at 80 mg in data set [1] stood at 76%. For the same compound, in data set [2] ((58%)/7%), the “shift in activity (media to serum protein binding)” value was 8.3 fold. The “inhibition level corresponding to protein-binding adjusted activity” value in data set [2] (adjusted activity 8.3 nM) is “IC5.7”; in data set [2] (adjusted activity 41 nM), “IC23”. Also, the Protein-binding adjusted activity amounted to 8.3 nM in data set [2] (cell activity Example 3: 1 nM), 41 nM in data set [2] (cell activity Example 3: 5 nM) and 166 nM in data set [2] (cell activity Example 3: 20 nM). Further, the IC50 against Pim1, against Pim3 and against Pim2 was ≤ 100 nM each time. Also, in data set [3], the “neoplastic erythroid colony formation of JAK2-V617F(+) MPN hematopoietic progenitors” value was “Inhibition”. Further, the protein binding result in data set [4] is listed as “high protein binding”. Also, the fraction unbound is 0.07 in data set [4] (read-out: average in vitro serum fraction unbound (fu)) and 0.58 in data set [5].

Consider `C[C@H]1CN(c2c(NC(=O)c3ccc(F)c(-c4c(F)cccc4F)n3)cnc3c2CC[C@H]3O)C[C@@H](N)[C@@H]1O` [dihydrochloric acid salt of Compound 1], for which the IC50 against Pim1, against Pim3 and at Pim2 was < 35 nM throughout.

For `C[C@H]1CN(c2c(NC(=O)c3ccc(F)c(-c4c(F)cccc4F)n3)cnc3c2CC[C@H]3O)C[C@@H](N)[C@@H]1O` [phosphoric acid salt of Compound 1], the IC50 against Pim1, against Pim3 and against Pim2 was < 35 nM each time.
